Here are results for 19 molecules from PMC8151276, “An Integrated Approach toward NanoBRET Tracers for Analysis of GPCR Ligand Engagement” (Molecules, 2021).

Molecules are shown by their SMILES.

This assay addresses T1, MC2R (Homo sapiens, UniProt Q01718).
T1 construct: purchased Promega (in-house HiBiT-GPCR construct library, NanoBRET)
Put plainly: NanoBRET screen HiBiT-MC2R in HEK293. Format: binding. The method, then: Each tracer candidate was screened across the entire library of HiBiT-GPCR constructs using NanoBRET as the detection modality. As depicted in Figure 4A, the specificity of interactions was evaluated through decrease in BRET due to competitive displacement of a bound tracer by excess parental compound. Each tracer was analyzed for binding to each HiBiT-GPCR fusion in the absence and in the presence of competing parental compound. Briefly, HEK293 cells were transfected with HiBiT-GPCR constructs diluted into promoterless DNA to reduce expression and maximize translocation to the cell surface. Each tracer candidate was then screened at concentrations of 1 μM and 0.1 μM across cells expressing these fusions. Cells were treated for 1.5 h with tracer either alone or in the presence of 20 μM competing parental compound (i.e., control). BRET was measured upon addition of purified LgBiT and subsequent complementation with HiBiT genetically fused to a GPCR. The specificity of interactions was assessed through a decrease in BRET signal due to competitive displacement of the bound tracer. To further gauge the robustness of these interactions, the fold response over the control (i.e., BRETtracer/BRETcontrol) was calculated. We chose a 1.5-fold response, which translates to ≥7-fold signal over noise as the minimal threshold required to score an interaction as positive.
HiBiT-GPCR DNA constructs were diluted in 10 mM Tris pH 8 to a final concentration of 0.01 μg/μL, arrayed in 96-well plates and stored at −20 °C. For transfection, HEK293 cells were suspended in Opti-MEM (without phenol red) supplemented with 2% fetal bovine serum (Seradigm) and 100 units/mL penicillin–streptomycin (Gibco) at a final concentration of 220,000 cells/mL and dispensed into white 96-well plates at 90 μL/well. Subsequent transfections and screens were carried using an Agilent Bravo Automated Liquid Handling Platform. First, the 96-well HiBiT DNA arrays were diluted 25-fold in Opti-MEM (without serum or phenol red) to a final concentration of 0.0004 μg/μL and 20 μL of the diluted DNAs were transferred into new 96-well plates. Next, promoterless carrier DNA (1 μg/μL) was diluted 25-fold (0.04 μg/μL) and then dispensed into the diluted arrays at 20 μL/well. Following brief mixing, Viafect transfection reagent (Promega) diluted 16-fold into Opti-MEM was dispensed into the plates at 40 μL/well. After mixing by pipetting, plates were incubated for 10 min on the pipetting station deck. The DNA-transfection reagent complexes were then added to plates containing cells. To facilitate the screen, 10 μL of DNA-transfection reagent complexes were added in duplicates to the top 4 and bottom 4 rows, resulting in two identical 48-well arrays per plate. Plates with transfected cells were incubated for 18–20 h at 37 °C/5% CO2. A screen of each tracer across the entire library using two different concentrations requires duplicate plates of transfected cells. Depending on the number of tracers being screened, transfections can be scaled up using the same ratios. The next day, for each tracer, four 20× screening solutions in tracer dilution buffer (Promega) were prepared: two duplicates at final concentration of 20 μM and two duplicates at a final concentration of 2 μM. […] The four resulting solutions were diluted 4-fold in Opti-MEM without serum or phenol red to generate 5× solutions (5 µM and 0.5 µM tracer +/− 100 μM competing compound). To screen the library, a BioTek MultiFlo FX liquid dispenser was used to dispense 22.5 µL of tracer solution to the top 4 rows and 22.5 µL tracer + competing compound solution to the 4 bottom rows. Plates were briefly mixed on an orbital shaker and incubated for 1.5 h at room temperature. […] Plates were briefly mixed on an orbital shaker and incubated for 15 min to allow complementation.
(In general: BRET reads energy transfer from a luciferase to a nearby fluorophore.)

T1 sequence (Q01718 whole entry): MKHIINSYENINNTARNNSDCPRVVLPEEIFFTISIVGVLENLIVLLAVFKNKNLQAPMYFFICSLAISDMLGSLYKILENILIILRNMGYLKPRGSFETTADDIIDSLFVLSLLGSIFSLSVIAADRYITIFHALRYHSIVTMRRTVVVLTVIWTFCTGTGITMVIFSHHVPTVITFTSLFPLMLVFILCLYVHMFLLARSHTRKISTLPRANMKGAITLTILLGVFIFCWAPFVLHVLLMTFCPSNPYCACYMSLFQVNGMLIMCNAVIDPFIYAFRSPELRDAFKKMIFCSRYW

Consider `COc1ccc2c(n1)c(CCNC(C)=O)cn2CCNC(=O)CCc1ccc2n1[B-](F)(F)[N+]1=C(c3ccc[nH]3)C=CC1=C2` [Azamelatonin-1-NB590], for which the “NanoBRET Fold Response” value (0.1μM tracer) is 0.89 and the “NanoBRET Fold Response” value (1μM tracer) was 1.03.
Take `CC(C)N(CC[C@H](c1ccccc1)c1cc(CCNC(=O)c2ccc(CNC(=O)CCc3ccc4n3[B-](F)(F)[N+]3=C(c5ccc[nH]5)C=CC3=C4)cc2)ccc1O)C(C)C` [Tolterodine-BZ-NB590]: the “NanoBRET Fold Response” value reads like this: (MC2R, tracer 0.1μM) 0.88; (MC2R, tracer 1μM) 1.06.
In the same order, the values of `O=C(CCc1ccc2n1[B-](F)(F)[N+]1=C(c3ccc[nH]3)C=CC1=C2)NCCOCCOCCNC(=O)OCCOCCN1CCN(C2=Nc3ccccc3Sc3ccccc32)CC1` [Quetiapine-a-2-NB590] are 0.98 and 0.95.
In the same order, the values of `Cc1cc2c(s1)Nc1ccccc1N=C2N1CCN(CCCNC(=O)CCOCCOCCOCCOCCNC(=O)CCc2ccc3n2[B-](F)(F)[N+]2=C(c4ccc[nH]4)C=CC2=C3)CC1` [Olanzapine-a-2-NB590] are 0.98 and 1.21.
For `O=C(CCc1ccc2n1[B-](F)(F)[N+]1=C(c3ccc[nH]3)C=CC1=C2)NCc1ccc(C(=O)NCCOCCOCCNCC(O)COc2cccc3ccccc23)cc1` (stereo not drawn) [Propranolol-3-NB590], the “NanoBRET Fold Response” value (MC2R, 1μM) came to 1.03.
`CN1CCN(C2=Nc3cc(Cl)ccc3N(CC(=O)NCCOCCOCCOCCOCCNC(=O)CCc3ccc4n3[B-](F)(F)[N+]3=C(c5ccc[nH]5)C=CC3=C4)c3ccccc32)CC1` [Clozapine-c-2-NB590]: the “NanoBRET Fold Response” value (MC2R, 0.1μM tracer) was 0.99 and the “NanoBRET Fold Response” value (MC2R, 1μM tracer) came to 1.11.
Turning to `O=C(CCc1ccc2n1[B-](F)(F)[N+]1=C(c3ccc[nH]3)C=CC1=C2)NCc1ccc(C(=O)NCCOCCC(=O)N[C@@H]2CC[C@@]3(O)[C@H]4Cc5ccc(O)c6c5[C@@]3(CCN4CC3CC3)[C@H]2O6)cc1` [Naltrexone-3-NB590], the “NanoBRET Fold Response” value (MC2R, tracer 0.1μM) worked out at 0.75 and the “NanoBRET Fold Response” value (MC2R, tracer 1μM) is 1.15.
The corresponding values for `CC(C)N(CC[C@H](c1ccccc1)c1cc(CCNC(=O)CCOCCOCCOCCOCCNC(=O)CCc2ccc3n2[B-](F)(F)[N+]2=C(c4ccc[nH]4)C=CC2=C3)ccc1O)C(C)C` [Tolterodine-2-NB590] are 1.08 and 1.10.
As for `Cc1nc2n(c(=O)c1CCN1CCC(c3noc4cc(F)ccc34)CC1)CCCC2OC(=O)NCCOCCOCCOCCOCCNC(=O)CCc1ccc2n1[B-](F)(F)[N+]1=C(c3ccc[nH]3)C=CC1=C2` (stereo not drawn) [Risperidone-2-NB590], the “NanoBRET Fold Response” value (MC2R, tracer 0.1μM) is on record as 1.04 and the “NanoBRET Fold Response” value (MC2R, tracer 1μM) is given as 1.06.
As for `O=C(CCOCCOCCOCCOCCNC(=O)CCc1ccc2n1[B-](F)(F)[N+]1=C(c3ccc[nH]3)C=CC1=C2)NCCCN1CCN(C2=Nc3cc(Cl)ccc3Nc3ccccc32)CC1` [Clozapine-a-2-NB590], the “NanoBRET Fold Response” value by setting is: (MC2R, 0.1μM tracer) 0.97; (MC2R, 1μM tracer) 0.97.
With `COc1ccc2[nH]c(-c3ccc(CNC(=O)CCOCCOCCOCCOCCNC(=O)CCc4ccc5n4[B-](F)(F)[N+]4=C(c6ccc[nH]6)C=CC4=C5)cc3)c(CCNC(C)=O)c2n1` [AzomelatoninICO9-2-NB590], the “NanoBRET Fold Response” value runs as follows: (0.1μM tracer) 0.93; (1μM tracer) 1.16.
Regarding `CN1CCN(C2=Nc3cc(Cl)ccc3Nc3ccc(CNC(=O)CCOCCOCCOCCOCCNC(=O)CCc4ccc5n4[B-](F)(F)[N+]4=C(c6ccc[nH]6)C=CC4=C5)cc32)CC1` [Clozapine-b-2-NB590], the “NanoBRET Fold Response” value runs as follows: (MC2R, 0.1μM tracer) 1.02; (MC2R, 1μM tracer) 1.00.
Take `COc1ccccc1N1CCN(CCCCN2C(=O)c3ccc(CNC(=O)CCOCCNC(=O)c4ccc(CNC(=O)CCc5ccc6n5[B-](F)(F)[N+]5=C(c7ccc[nH]7)C=CC5=C6)cc4)cc3C2=O)CC1` [NAN-190-3-NB590]: the “NanoBRET Fold Response” value runs as follows: (MC2R, tracer 0.1μM) 1.02; (MC2R, tracer 1μM) 0.96.
In the same order, the values of `N#CN=C(NCCCOc1cccc(CN2CCCCC2)c1)NCCNC(=O)CCOCCOCCOCCOCCNC(=O)CCc1ccc2n1[B-](F)(F)[N+]1=C(c3ccc[nH]3)C=CC1=C2` [Aminopotentidine-2-NB590] are 0.97 and 0.92.
As for `CN(C)CCC=C1c2ccccc2CCc2ccc(C(=O)NCCNC(=O)CCOCCOCCOCCOCCNC(=O)CCc3ccc4n3[B-](F)(F)[N+]3=C(c5ccc[nH]5)C=CC3=C4)cc21` [Amitriptyline-b-2-NB590], the “NanoBRET Fold Response” value runs as follows: (tracer at 0.1μM) 1.00; (tracer at 1μM) 1.02.
For the molecule `COc1ccccc1N1CCN(CCCCN2C(=O)c3ccc(CNC(=O)CCOCCOCCOCCOCCNC(=O)CCc4ccc5n4[B-](F)(F)[N+]4=C(c6ccc[nH]6)C=CC4=C5)cc3C2=O)CC1` [NAN-190-2-NB590], the “NanoBRET Fold Response” value (MC2R, tracer 0.1μM) is given as 0.96.
Consider `O=C(CCOCCOCCOCCOCCNC(=O)CCc1ccc2n1[B-](F)(F)[N+]1=C(c3ccc[nH]3)C=CC1=C2)NCCCN1CCN(C2=Nc3ccccc3Oc3ccc(Cl)cc32)CC1` [Loxapine-a-2-NB590], for which the “NanoBRET Fold Response” value reads like this: (MC2R, tracer 0.1μM) 0.99; (MC2R, tracer 1μM) 1.11.
In the same order, the values of `CCCn1c(=O)c2[nH]c(-c3ccc(OCC(=O)NCCNC(=O)CCOCCNC(=O)c4ccc(CNC(=O)CCc5ccc6n5[B-](F)(F)[N+]5=C(c7ccc[nH]7)C=CC5=C6)cc4)cc3)nc2n(CCC)c1=O` [XAC-3-NB590] are 1.02 and 1.05.
For `CCOC(=O)c1cc(C#N)c(N2CCC(C(=O)NS(=O)(=O)Cc3ccccc3/C=C/C(=O)NCCNC(=O)CCc3ccc4n3[B-](F)(F)[N+]3=C(c5ccc[nH]5)C=CC3=C4)CC2)nc1C` [AZD1283-1-NB590], the “NanoBRET Fold Response” value is, setting by setting: (MC2R, 0.1μM) 0.94; (MC2R, 1μM) 1.02.
